In the kinase profiling compilation of Christmann-Franck et al. (2016):

Columns and labels:
Assay in all cases: radiometric filter-binding kinase assay, Kinase HotSpot
Details in all cases: compound 0.5 µM; ATP 10 µM
[1] = target: PHKG2 (human) (UniProt P15735)
[2] = target: PASK (human) (UniProt Q96RG2)
[3] = target: EPHA4 (human) (UniProt P54764)
[4] = target: ITK (human) (UniProt Q08881)
[5] = target: MERTK (human) (UniProt Q12866)
[6] = target: PAK2 (human) (UniProt Q13177)
[7] = target: CAMK2G (human) (UniProt Q13555)
[8] = target: AKT2 (human) (UniProt P31751)
[9] = target: NUAK2 (human) (UniProt Q9H093)
[10] = target: MAPKAPK3 (human) (UniProt Q16644)
[11] = target: INSRR (human) (UniProt P14616)
[12] = target: ERBB4 (human) (UniProt Q15303)
[13] = target: DYRK3 (human) (UniProt O43781)
[14] = target: PDPK1 (human) (UniProt O15530)
[15] = target: PTK2 (human) (UniProt Q05397)
[16] = target: SGK3 (human) (UniProt Q96BR1)
[17] = target: HIPK2 (human) (UniProt Q9H2X6)
[18] = target: MAP2K2 (human) (UniProt P36507)
[19] = target: HCK (human) (UniProt P08631)
Sequence of HCK (human) (P08631 whole entry, looked up): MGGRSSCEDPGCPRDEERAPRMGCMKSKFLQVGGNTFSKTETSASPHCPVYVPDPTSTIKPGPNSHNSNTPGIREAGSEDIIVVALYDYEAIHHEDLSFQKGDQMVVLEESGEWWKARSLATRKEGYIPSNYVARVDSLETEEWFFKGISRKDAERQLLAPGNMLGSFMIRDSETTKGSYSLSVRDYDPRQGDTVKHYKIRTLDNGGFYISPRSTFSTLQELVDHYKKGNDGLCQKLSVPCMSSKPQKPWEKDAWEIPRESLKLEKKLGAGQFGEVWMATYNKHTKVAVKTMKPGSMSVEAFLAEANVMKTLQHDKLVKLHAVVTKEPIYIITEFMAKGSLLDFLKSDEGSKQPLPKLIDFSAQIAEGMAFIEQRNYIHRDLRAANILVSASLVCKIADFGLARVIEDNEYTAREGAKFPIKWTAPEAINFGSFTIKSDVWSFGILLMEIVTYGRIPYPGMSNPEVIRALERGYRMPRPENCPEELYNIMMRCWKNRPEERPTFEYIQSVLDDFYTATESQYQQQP

[20] = target: JAK2 JH1 JH2 (human) (UniProt O60674)
Sequence of JAK2 JH1 JH2 (human) (O60674 whole entry, looked up): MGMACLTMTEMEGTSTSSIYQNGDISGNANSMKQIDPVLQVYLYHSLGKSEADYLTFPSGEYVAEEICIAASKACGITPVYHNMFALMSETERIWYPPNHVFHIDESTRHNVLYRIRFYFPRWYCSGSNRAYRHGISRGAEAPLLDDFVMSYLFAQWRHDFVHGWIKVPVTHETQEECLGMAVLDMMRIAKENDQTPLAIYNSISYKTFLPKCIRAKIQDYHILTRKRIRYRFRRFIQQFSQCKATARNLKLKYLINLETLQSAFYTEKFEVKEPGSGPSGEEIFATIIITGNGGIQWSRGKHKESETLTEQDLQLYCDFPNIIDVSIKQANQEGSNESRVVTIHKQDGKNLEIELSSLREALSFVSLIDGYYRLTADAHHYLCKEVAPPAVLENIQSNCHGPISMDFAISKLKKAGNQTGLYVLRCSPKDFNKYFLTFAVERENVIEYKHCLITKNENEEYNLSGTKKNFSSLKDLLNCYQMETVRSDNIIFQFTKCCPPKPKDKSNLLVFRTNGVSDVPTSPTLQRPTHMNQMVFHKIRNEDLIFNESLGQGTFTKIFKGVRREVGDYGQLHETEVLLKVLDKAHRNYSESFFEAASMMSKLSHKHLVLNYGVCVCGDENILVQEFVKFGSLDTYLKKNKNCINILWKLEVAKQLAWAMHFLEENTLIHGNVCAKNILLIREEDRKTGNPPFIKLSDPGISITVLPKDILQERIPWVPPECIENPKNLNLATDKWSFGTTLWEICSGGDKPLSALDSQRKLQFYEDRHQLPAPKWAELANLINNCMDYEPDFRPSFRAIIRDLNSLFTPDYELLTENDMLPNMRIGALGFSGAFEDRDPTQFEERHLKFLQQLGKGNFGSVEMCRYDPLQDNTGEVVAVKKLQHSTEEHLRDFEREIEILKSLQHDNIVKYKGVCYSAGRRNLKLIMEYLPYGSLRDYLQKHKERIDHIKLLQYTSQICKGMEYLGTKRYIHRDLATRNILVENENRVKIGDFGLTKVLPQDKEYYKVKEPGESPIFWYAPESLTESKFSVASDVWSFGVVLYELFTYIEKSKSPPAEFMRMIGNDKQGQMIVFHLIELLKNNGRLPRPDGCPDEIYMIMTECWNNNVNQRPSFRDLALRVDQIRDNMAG

[21] = target: PRKCE (human) (UniProt Q02156)
Sequence of PRKCE (human) (Q02156 whole entry, looked up): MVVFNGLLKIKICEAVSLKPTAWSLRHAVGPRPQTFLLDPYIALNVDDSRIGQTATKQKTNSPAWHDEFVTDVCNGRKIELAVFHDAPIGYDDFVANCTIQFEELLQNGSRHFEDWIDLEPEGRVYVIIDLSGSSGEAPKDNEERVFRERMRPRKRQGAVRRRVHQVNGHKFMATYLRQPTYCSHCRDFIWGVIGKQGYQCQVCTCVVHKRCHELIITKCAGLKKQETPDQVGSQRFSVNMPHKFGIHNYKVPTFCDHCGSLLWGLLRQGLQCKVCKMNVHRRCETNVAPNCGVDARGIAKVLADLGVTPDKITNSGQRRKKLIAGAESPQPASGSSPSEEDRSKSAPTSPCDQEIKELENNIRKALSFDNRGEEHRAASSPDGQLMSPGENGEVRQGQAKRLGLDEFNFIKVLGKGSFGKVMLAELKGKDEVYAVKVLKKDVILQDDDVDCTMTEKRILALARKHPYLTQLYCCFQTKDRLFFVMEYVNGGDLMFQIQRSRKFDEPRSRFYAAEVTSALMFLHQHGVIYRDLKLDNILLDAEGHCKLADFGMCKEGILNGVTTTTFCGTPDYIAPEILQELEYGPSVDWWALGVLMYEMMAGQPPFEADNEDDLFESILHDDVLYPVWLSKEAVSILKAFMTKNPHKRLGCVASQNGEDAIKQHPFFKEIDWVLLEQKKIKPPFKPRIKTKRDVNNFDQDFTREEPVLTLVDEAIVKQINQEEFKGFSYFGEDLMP

[22] = target: EPHB4 (human) (UniProt P54760)
[23] = target: PKN1 (human) (UniProt Q16512)
[24] = target: EPHB1 (human) (UniProt P54762)
Sequence of EPHB1 (human) (P54762 whole entry, looked up): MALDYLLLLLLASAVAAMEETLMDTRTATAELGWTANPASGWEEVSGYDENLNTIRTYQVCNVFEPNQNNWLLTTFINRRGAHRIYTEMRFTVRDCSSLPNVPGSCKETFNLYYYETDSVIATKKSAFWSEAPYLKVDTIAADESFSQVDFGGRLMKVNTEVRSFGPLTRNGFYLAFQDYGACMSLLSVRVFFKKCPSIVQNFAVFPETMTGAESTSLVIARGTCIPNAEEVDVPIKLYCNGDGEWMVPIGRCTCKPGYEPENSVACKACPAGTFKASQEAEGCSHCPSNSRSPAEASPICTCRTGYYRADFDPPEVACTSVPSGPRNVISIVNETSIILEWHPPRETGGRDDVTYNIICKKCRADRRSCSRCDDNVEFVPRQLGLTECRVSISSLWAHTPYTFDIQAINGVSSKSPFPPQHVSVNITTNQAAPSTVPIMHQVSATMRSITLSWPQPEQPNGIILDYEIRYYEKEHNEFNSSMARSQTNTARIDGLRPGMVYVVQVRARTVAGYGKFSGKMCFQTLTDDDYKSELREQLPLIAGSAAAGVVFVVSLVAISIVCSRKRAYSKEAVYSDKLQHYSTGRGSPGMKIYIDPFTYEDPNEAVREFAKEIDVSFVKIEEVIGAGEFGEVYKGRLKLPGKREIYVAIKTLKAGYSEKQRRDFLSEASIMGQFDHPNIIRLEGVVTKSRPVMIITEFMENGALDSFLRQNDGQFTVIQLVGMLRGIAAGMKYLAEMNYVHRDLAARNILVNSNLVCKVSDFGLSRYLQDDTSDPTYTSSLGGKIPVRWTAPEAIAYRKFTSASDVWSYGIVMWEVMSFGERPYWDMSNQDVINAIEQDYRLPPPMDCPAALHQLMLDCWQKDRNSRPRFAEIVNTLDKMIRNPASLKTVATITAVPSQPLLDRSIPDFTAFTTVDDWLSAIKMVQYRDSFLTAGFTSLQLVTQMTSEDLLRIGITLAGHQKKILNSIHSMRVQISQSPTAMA

[25] = target: PDGFRA (human) (UniProt P16234)
[26] = target: CSNK1G1 (human) (UniProt Q9HCP0)
[27] = target: AXL (human) (UniProt P30530)
[28] = target: MAPK3 (human) (UniProt P27361)
[29] = target: PTK2B (human) (UniProt Q14289)
[30] = target: MAPK12 (human) (UniProt P53778)
Sequence of MAPK12 (human) (P53778 whole entry, looked up): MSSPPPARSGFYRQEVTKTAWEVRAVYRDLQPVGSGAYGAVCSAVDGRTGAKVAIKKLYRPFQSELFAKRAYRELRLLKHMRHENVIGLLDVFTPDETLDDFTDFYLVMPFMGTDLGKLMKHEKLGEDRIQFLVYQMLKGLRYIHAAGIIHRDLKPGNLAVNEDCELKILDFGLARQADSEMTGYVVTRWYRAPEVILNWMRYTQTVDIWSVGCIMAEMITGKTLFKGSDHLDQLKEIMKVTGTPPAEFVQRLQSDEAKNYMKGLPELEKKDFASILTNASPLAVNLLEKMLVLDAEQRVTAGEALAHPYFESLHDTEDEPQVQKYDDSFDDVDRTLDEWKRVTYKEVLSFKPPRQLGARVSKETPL

[31] = target: AURKB (human) (UniProt Q96GD4)
Sequence of AURKB (human) (Q96GD4 whole entry, looked up): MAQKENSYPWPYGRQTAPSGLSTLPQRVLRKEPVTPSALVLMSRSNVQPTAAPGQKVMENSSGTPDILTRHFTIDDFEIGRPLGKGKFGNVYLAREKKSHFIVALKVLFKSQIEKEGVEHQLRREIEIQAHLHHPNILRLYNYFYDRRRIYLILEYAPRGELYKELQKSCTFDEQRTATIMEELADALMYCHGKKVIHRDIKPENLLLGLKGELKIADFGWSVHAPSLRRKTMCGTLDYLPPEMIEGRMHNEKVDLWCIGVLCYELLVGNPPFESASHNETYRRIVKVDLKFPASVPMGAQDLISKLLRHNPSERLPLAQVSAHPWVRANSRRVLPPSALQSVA

[32] = target: NEK4 (human) (UniProt P51957)
[33] = target: PKN2 (human) (UniProt Q16513)
[34] = target: NUAK1 (human) (UniProt O60285)
[35] = target: CSF1R (human) (UniProt P07333)
[36] = target: MLTK (human) (UniProt Q9NYL2)
[37] = target: PRKACA (human) (UniProt P17612)
[38] = target: CDK7 CCNH MNAT1 (human) (UniProt P50613+P51948+P51946)
[39] = target: SRPK1 (human) (UniProt Q96SB4)
[40] = target: MAPKAPK5 (human) (UniProt Q8IW41)
[41] = target: STK10 (human) (UniProt O94804)
Sequence of STK10 (human) (O94804 whole entry, looked up): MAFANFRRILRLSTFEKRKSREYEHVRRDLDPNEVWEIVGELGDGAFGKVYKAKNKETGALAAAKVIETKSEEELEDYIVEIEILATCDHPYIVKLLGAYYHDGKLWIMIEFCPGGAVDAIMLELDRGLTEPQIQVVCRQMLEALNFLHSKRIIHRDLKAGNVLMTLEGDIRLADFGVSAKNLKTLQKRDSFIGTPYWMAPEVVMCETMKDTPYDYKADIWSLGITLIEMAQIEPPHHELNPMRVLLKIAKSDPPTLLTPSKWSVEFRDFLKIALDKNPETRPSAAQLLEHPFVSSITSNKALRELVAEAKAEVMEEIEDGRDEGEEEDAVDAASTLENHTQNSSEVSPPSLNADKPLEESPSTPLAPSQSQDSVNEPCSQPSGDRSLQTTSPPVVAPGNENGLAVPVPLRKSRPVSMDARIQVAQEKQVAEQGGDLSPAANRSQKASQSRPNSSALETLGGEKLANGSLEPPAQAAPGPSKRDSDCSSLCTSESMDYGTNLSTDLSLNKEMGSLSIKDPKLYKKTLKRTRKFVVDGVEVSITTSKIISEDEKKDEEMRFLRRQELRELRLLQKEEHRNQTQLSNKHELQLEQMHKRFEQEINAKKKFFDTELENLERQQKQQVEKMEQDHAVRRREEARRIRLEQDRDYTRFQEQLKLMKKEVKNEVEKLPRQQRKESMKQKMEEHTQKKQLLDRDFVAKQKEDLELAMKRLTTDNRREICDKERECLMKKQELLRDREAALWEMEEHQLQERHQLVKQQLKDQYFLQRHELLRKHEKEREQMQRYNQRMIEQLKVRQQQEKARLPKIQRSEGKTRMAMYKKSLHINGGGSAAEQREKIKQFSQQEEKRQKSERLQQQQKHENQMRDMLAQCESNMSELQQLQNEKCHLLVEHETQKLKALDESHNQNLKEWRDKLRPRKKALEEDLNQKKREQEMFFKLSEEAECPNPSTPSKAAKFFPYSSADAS

[42] = target: WNK3 (human) (UniProt Q9BYP7)

O=C1NC(=O)C(c2cn(CCCn3ccnc3)c3ccccc23)=C1Nc1ccccc1
residual activity [1]: 107% | residual activity [2]: 98% | residual activity [3]: 111% | residual activity [4]: 93.9% | residual activity [5]: 86.1% | residual activity [6]: 88.5% | residual activity [7]: 90.9% | residual activity [8]: 92.3% | residual activity [9]: 113% | residual activity [10]: 92.4% | residual activity [11]: 101% | residual activity [12]: 59.6% | residual activity [13]: 103% | residual activity [14]: 80.3% | residual activity [15]: 104% | residual activity [16]: 89.9% | residual activity [17]: 87.6% | residual activity [18]: 102% | residual activity [19]: 97.9% | residual activity [20]: 84.3% | residual activity [21]: 12.8% | residual activity [22]: 87.9% | residual activity [23]: 22.7% | residual activity [24]: 102% | residual activity [25]: 94.1% | residual activity [26]: 95% | residual activity [27]: 98.8% | residual activity [28]: 103% | residual activity [29]: 93.3% | residual activity [30]: 102% | residual activity [31]: 95.4% | residual activity [32]: 94.9% | residual activity [33]: 76.9% | residual activity [34]: 70.6% | residual activity [35]: 97.5% | residual activity [36]: 104% | residual activity [37]: 94% | residual activity [38]: 96.3% | residual activity [39]: 99.5% | residual activity [40]: 96.4% | residual activity [41]: 11.5% | residual activity [42]: 100%

O=c1cc(N2CCOCC2)oc2c1ccc1ccccc12
residual activity [1]: 99.8% | residual activity [2]: 94.9% | residual activity [3]: 94.4% | residual activity [4]: 100% | residual activity [5]: 96.4% | residual activity [6]: 103% | residual activity [7]: 95.5% | residual activity [8]: 98.9% | residual activity [9]: 120% | residual activity [10]: 105% | residual activity [11]: 97.4% | residual activity [12]: 101% | residual activity [13]: 96% | residual activity [14]: 109% | residual activity [15]: 108% | residual activity [16]: 106% | residual activity [17]: 105% | residual activity [18]: 100% | residual activity [19]: 114% | residual activity [20]: 94.9% | residual activity [21]: 89.6% | residual activity [22]: 96.3% | residual activity [23]: 106% | residual activity [24]: 104% | residual activity [25]: 83.9% | residual activity [26]: 101% | residual activity [27]: 98.1% | residual activity [28]: 106% | residual activity [29]: 94.3% | residual activity [30]: 97.4% | residual activity [31]: 97.6% | residual activity [32]: 97.4% | residual activity [33]: 93.2% | residual activity [34]: 90.1% | residual activity [35]: 103% | residual activity [36]: 98% | residual activity [37]: 102% | residual activity [38]: 98.2% | residual activity [39]: 90.9% | residual activity [40]: 98.4% | residual activity [41]: 96.9% | residual activity [42]: 97.5%

c1ccc(-c2n[nH]c3c2oc2ccccc23)cc1
residual activity [1]: 112% | residual activity [2]: 97.4% | residual activity [3]: 95.5% | residual activity [4]: 80.4% | residual activity [5]: 80% | residual activity [6]: 92.3% | residual activity [7]: 93.3% | residual activity [8]: 112% | residual activity [9]: 95.2% | residual activity [10]: 100% | residual activity [11]: 104% | residual activity [12]: 89.7% | residual activity [13]: 93% | residual activity [14]: 94.7% | residual activity [15]: 94.7% | residual activity [16]: 111% | residual activity [17]: 99.6% | residual activity [18]: 85.8% | residual activity [19]: 111% | residual activity [20]: 89.8% | residual activity [21]: 86% | residual activity [22]: 112% | residual activity [23]: 94.1% | residual activity [24]: 103% | residual activity [25]: 73.7% | residual activity [26]: 91.6% | residual activity [27]: 101% | residual activity [28]: 87.3% | residual activity [29]: 96.8% | residual activity [30]: 100% | residual activity [31]: 50.8% | residual activity [32]: 92.9% | residual activity [33]: 97.5% | residual activity [34]: 96.2% | residual activity [35]: 78.1% | residual activity [36]: 96.2% | residual activity [37]: 97.5% | residual activity [38]: 101% | residual activity [39]: 113% | residual activity [40]: 103% | residual activity [41]: 108% | residual activity [42]: 91.5%

CC[n+]1c(/C=C/N(C)c2ccccc2)n(-c2ccccc2)c2ccc(-c3nc4ccccc4s3)cc21
residual activity [1]: 102% | residual activity [2]: 102% | residual activity [3]: 91.9% | residual activity [4]: 92.7% | residual activity [5]: 96.5% | residual activity [6]: 97.3% | residual activity [7]: 103% | residual activity [8]: 99.6% | residual activity [9]: 93.3% | residual activity [10]: 100% | residual activity [11]: 101% | residual activity [12]: 102% | residual activity [13]: 98.7% | residual activity [14]: 103% | residual activity [15]: 108% | residual activity [16]: 102% | residual activity [17]: 103% | residual activity [18]: 88.5% | residual activity [19]: 104% | residual activity [20]: 98.8% | residual activity [21]: 97.7% | residual activity [22]: 103% | residual activity [23]: 85.7% | residual activity [24]: 104% | residual activity [25]: 95.2% | residual activity [26]: 104% | residual activity [27]: 101% | residual activity [28]: 112% | residual activity [29]: 103% | residual activity [30]: 105% | residual activity [31]: 93.9% | residual activity [32]: 90.5% | residual activity [33]: 79.2% | residual activity [34]: 96.1% | residual activity [35]: 108% | residual activity [36]: 93.8% | residual activity [37]: 103% | residual activity [38]: 97.8% | residual activity [39]: 105% | residual activity [40]: 96.8% | residual activity [41]: 101% | residual activity [42]: 85.9%
